Laboratory results as given in patent EP0535528A1, “Antibacterial 5-Nitro-1-methyl-imidazolyl-3-terbutyl-2-hydroxy-aryl-carbinols” (EURORESEARCH S.r.L., priority 1991, dated 1993).
Like-named read-outs stand apart in the source and are kept apart here.

Key:
[1] = solubility of the isolated product; format: physicochemical
[2] = Oral and intraperitoneal acute toxicity in mice (LD50, Probits method); format: in vivo; conditions: mouse, in vivo, Swiss female mice, 14 days observation
Description: (§1) 20 Swiss female albino mice are used for this test of the average weight of 20 g (±2), coming from Nossan breeding .
(§2) Cages: in Makrolon® with saw dust litter, Number of animals per cage: 5 Acclimation period: 1 week Temperature: 22°C (± 2°C) Humidity : 60%, Diet: pellets for mice produced by Nossan firm, Water ad libitum Fast before the treatment: 16 hours
(§3) Oral by gastric route and intraperitoneal.
(§4) The substances to be studied: EU11100, EU11102, EU11103, EU11104 are treated with 0.5% carboxymethylcellulose in spring water, for the oral administration, whereas the same substances are intraperitoneally administered in the form of a physiological solution .
(§5) For each of the above mentioned substances, a mother suspension is prepared having a concentration in the active ingredient of 250 mg/ml for the oral administration, and analogously a mother suspension is prepared for the intraperitoneal administration having a concentration of the desired active principle of 100 mg/ml.
(§6) The following doses are used • a) oral route: 5000 mg/kg • b) intraperitoneal route : 2000 mg/kg
(§7) If mortality is observed at the above mentioned doses, other doses are administered in order to obtain a dose-response curve.
(§8) 5 animals are used for every utilized concentration.
(§9) After the administration of the above substances the animals are kept under observation for 14 days , during which the mortality and the behaviour is observed.
(§10) LD₅₀ is determined on the base of the cumulative mortality observed in the successive 14 days after the administration by using the Probits method.

Swiss female albino mice = experiment: as above; format: in vivo; conditions: for Mortality per day: 5 animals; for mortality: intraperitoneal
Description: as §1, §2, §3, §4, §5, §6, §7, §8, §9, §10

Helicobapter pylori = experiment: Inhibition halos of the bacterial growth (impregnated disks on agar); format: cell-based
Description: Comparison substance: Metronidazole Solubilization of the substances : All the substances to be studied are dissolved at room temperature in DMSO.
Some commercially available antibiogram disks are so impregnated with the above mentioned compounds that each disk has concentration equal to 10, 1, 0.1, 0.01 µg.
10 strains of Helicobapter pylori are used of recent clinical isolation.
Columbia Blood Agar Base is used, containing 5% of defibrinated horse blood, 2 % of calf serum, 2 vials of Vitox per liter of medium and Vancomicine (10 µg/ml) Trimetoprim lactate(5 µg/ml) and Polimixin B (2.5 U/ml).
0.1 ml of a suspension of the different used strains are uniformly distributed onto Petri plates, containing 20 ml of Columbia Blood Agar base, obtained by taking a sample, by means of a platinum loop, of different colonies from a 48 hours culture, grown in anaerobiosis jars with "Gas Pack", without a catalyst and diluted into a physiological solution.
4 disks per plate, previously impregnated with the substances under examination, are then placed onto the agar layer of each plate.
After 48 hours of anaerobiosis incubation, as above described, the inhibition halos of the bacterial growth, produced by the different activity of the substances inside the agar, are evaluated.

[3] = Direct mutation test (16 h treatment in the growth step); format: cell-based
Description: The tests are carried out on the compound EU11100 with or without metabolic activity for a treatment period of 16 h in the growth step. The used concentrations are 0.25-0.50 mg/ml without metabolic activation and 0.075-0.150 mg/ml with metabolic activation.

[4] = section A (without), 0.25 mg/ml
[5] = section A (without), 0.50 mg/ml

COc1cc(C(O)c2ncc([N+](=O)[O-])n2C)c(O)c(C(C)(C)C)c1 (stereo not shown) [EU11100, 5-nitro-1-methyl-imidazolyl-3-terbutyl-2-hydroxy-5-methoxy-phenyl-carbinol]
solubility [1]: Soluble in CH₃OH, benzene, acetone, ethyl ether; insoluble in water and ligroin. | LD50 at 336 h ([2]; po, per os, read-out: LD50 os): > 5000 mg/kg | LD50 at 336 h ([2]; ip, read-out: LD50 i.p.): 890 mg/kg | LD50 i.p. (Swiss female albino mice; Swiss female mice, ip, 14 days observation, 20160 min): LD50 i.p.= 890 mg/Kg (confidence limits: 781 - 1014) | Observation on the behaviour (Swiss female albino mice; ip, 500 mg/Kg): 500 mg/Kg: no alteration | Mortality per day (Swiss female albino mice; ip, 500 mg/Kg, day 1): 0 | Observation on the behaviour (Swiss female albino mice; ip, 750 mg/Kg): 750 mg/Kg: motor activity reduction | Mortality per day (Swiss female albino mice; ip, 750 mg/Kg, day 1): 1 | Mortality per day (Swiss female albino mice; ip, 1000 mg/Kg, day 1): 3 | Mortality per day (Swiss female albino mice; ip, 1500 mg/Kg, day 1): 5 | Mortality per day (Swiss female albino mice; ip, 2000 mg/Kg, day 1): 5 | Death within (time) (Swiss female albino mice; ip, doses 2000 - 1500 - 1000 mg/Kg): 6 to 24 h | Observation on the behaviour (Swiss female albino mice; ip, doses 2000 - 1500 - 1000 mg/Kg, after 15-30'): considerable behaviouristic alteration, such as the loss of body-righting reflex | Observation on the behaviour (Swiss female albino mice; ip, doses 2000 - 1500 - 1000 mg/Kg, after 15-30', listed as EU 11100): considerable reduction motor activity and subsequent loss of body righting reflex | mortality (Swiss female albino mice; mice, 1500 mg/kg): 100% | mortality (Swiss female albino mice; mice, 2000 mg/kg): 100% | toxicity when intraperitoneally administered (Swiss female albino mice; mice, intraperitoneal, 2000, 1500 and 1000 mg/kg): toxic | toxicity when orally administered (Swiss female albino mice; mice, oral, 5000 mg/kg): not toxic | Observation on the behaviour (Swiss female albino mice; os, 5000 mg/Kg): No alteration | Mortality per day (Swiss female albino mice; os, 5000 mg/Kg, day 1): 0 | Mortality per day (Swiss female albino mice; os, 5000 mg/Kg, day 2): 0 | Mortality per day (Swiss female albino mice; os, 5000 mg/Kg, day 3): 0 | Mortality per day (Swiss female albino mice; os, 5000 mg/Kg, day 4): 0 | Mortality per day (Swiss female albino mice; os, 5000 mg/Kg, day 5): 0 | Mortality per day (Swiss female albino mice; os, 5000 mg/Kg, day 6): 0 | Mortality per day (Swiss female albino mice; os, 5000 mg/Kg, day 7): 0 | Mortality per day (Swiss female albino mice; os, 5000 mg/Kg, day 8): 0 | Mortality per day (Swiss female albino mice; os, 5000 mg/Kg, day 9): 0 | Mortality per day (Swiss female albino mice; os, 5000 mg/Kg, day 10): 0 | Mortality per day (Swiss female albino mice; os, 5000 mg/Kg, day 11): 0 | Mortality per day (Swiss female albino mice; os, 5000 mg/Kg, day 12): 0 | Mortality per day (Swiss female albino mice; os, 5000 mg/Kg, day 13): 0 | Mortality per day (Swiss female albino mice; os, 5000 mg/Kg, day 14): 0 | activity against the Helicobapter pylori strains used (Helicobapter pylori; 10 strains, 0.1 µg/disk): still able to produce halos against all the strains used | Inhibition halo (mm), Average (Helicobapter pylori; average of 10 strains, 10 µg/disk): 43.7 mm | Inhibition halo (mm) at the concentration (µg/disk) (Helicobapter pylori; strain 1, 0.01 µg/disk): 0 mm | Inhibition halo (mm) at the concentration (µg/disk) (Helicobapter pylori; strain 1, 0.1 µg/disk): 26 mm | Inhibition halo (mm) at the concentration (µg/disk) (Helicobapter pylori; strain 1, 1 µg/disk): 35 mm | Inhibition halo (mm) at the concentration (µg/disk) (Helicobapter pylori; strain 1, 10 µg/disk): 50 mm | Inhibition halo (mm) at the concentration (µg/disk) (Helicobapter pylori; strain 2, 0.01 µg/disk): 0 mm | Inhibition halo (mm) at the concentration (µg/disk) (Helicobapter pylori; strain 2, 1 µg/disk): 30 mm | Inhibition halo (mm) at the concentration (µg/disk) (Helicobapter pylori; strain 2, 10 µg/disk): 44 mm | Inhibition halo (mm) at the concentration (µg/disk) (Helicobapter pylori; strain 3, 0.01 µg/disk): 0 mm | Inhibition halo (mm) at the concentration (µg/disk) (Helicobapter pylori; strain 3, 0.1 µg/disk): 14 mm | Inhibition halo (mm) at the concentration (µg/disk) (Helicobapter pylori; strain 3, 1 µg/disk): 30 mm | Inhibition halo (mm) at the concentration (µg/disk) (Helicobapter pylori; strain 3, 10 µg/disk): 38 mm | Inhibition halo (mm) at the concentration (µg/disk) (Helicobapter pylori; strain 4, 0.01 µg/disk): 0 mm | Inhibition halo (mm) at the concentration (µg/disk) (Helicobapter pylori; strain 4, 0.1 µg/disk): 26 mm | Inhibition halo (mm) at the concentration (µg/disk) (Helicobapter pylori; strain 4, 1 µg/disk): 35 mm | Inhibition halo (mm) at the concentration (µg/disk) (Helicobapter pylori; strain 4, 10 µg/disk): 50 mm | Inhibition halo (mm) at the concentration (µg/disk) (Helicobapter pylori; strain 5, 0.01 µg/disk): 0 mm | Inhibition halo (mm) at the concentration (µg/disk) (Helicobapter pylori; strain 5, 0.1 µg/disk): 12 mm | Inhibition halo (mm) at the concentration (µg/disk) (Helicobapter pylori; strain 5, 1 µg/disk): 22 mm | Inhibition halo (mm) at the concentration (µg/disk) (Helicobapter pylori; strain 5, 10 µg/disk): 38 mm | Inhibition halo (mm) at the concentration (µg/disk) (Helicobapter pylori; strain 6, 0.01 µg/disk): 0 mm | Inhibition halo (mm) at the concentration (µg/disk) (Helicobapter pylori; strain 6, 0.1 µg/disk): 22 mm | Inhibition halo (mm) at the concentration (µg/disk) (Helicobapter pylori; strain 6, 1 µg/disk): 34 mm | Inhibition halo (mm) at the concentration (µg/disk) (Helicobapter pylori; strain 6, 10 µg/disk): 48 mm | Inhibition halo (mm) at the concentration (µg/disk) (Helicobapter pylori; strain 7, 0.01 µg/disk): 0 mm | Inhibition halo (mm) at the concentration (µg/disk) (Helicobapter pylori; strain 7, 0.1 µg/disk): 12 mm | Inhibition halo (mm) at the concentration (µg/disk) (Helicobapter pylori; strain 7, 1 µg/disk): 28 mm | Inhibition halo (mm) at the concentration (µg/disk) (Helicobapter pylori; strain 7, 10 µg/disk): 35 mm | Inhibition halo (mm) at the concentration (µg/disk) (Helicobapter pylori; strain 8, 0.01 µg/disk): 0 mm | Inhibition halo (mm) at the concentration (µg/disk) (Helicobapter pylori; strain 8, 0.1 µg/disk): 21 mm | Inhibition halo (mm) at the concentration (µg/disk) (Helicobapter pylori; strain 8, 10 µg/disk): 48 mm | Inhibition halo (mm) at the concentration (µg/disk) (Helicobapter pylori; strain 9, 0.01 µg/disk): 0 mm | Inhibition halo (mm) at the concentration (µg/disk) (Helicobapter pylori; strain 9, 1 µg/disk): 28 mm | Inhibition halo (mm) at the concentration (µg/disk) (Helicobapter pylori; strain 9, 10 µg/disk): 43 mm | Inhibition halo (mm) at the concentration (µg/disk) (Helicobapter pylori; strain 10, 0.01 µg/disk): 0 mm | Inhibition halo (mm) at the concentration (µg/disk) (Helicobapter pylori; strain 10, 0.1 µg/disk): 14 mm | Inhibition halo (mm) at the concentration (µg/disk) (Helicobapter pylori; strain 10, 10 µg/disk): 43 mm | Frequency of: Mutation [3, 4]: 1.60 | Survival (%) [3, 4]: 71.1% | Frequency of: Mutation [3, 5]: 0.00 | Survival (%) [3, 5]: 36.4% | Frequency of: Mutation ([3]; section B (with), 0.075 mg/ml): 2.11 | Survival (%) ([3]; section B (with), 0.075 mg/ml): 89.9% | Frequency of: Mutation ([3]; section B (with), 0.150 mg/ml): 3.22 | Survival (%) ([3]; section B (with), 0.150 mg/ml): 29.5%
